{
  "source": "patent US5109025A",
  "about": "“Therapeutic agent for penal disorders” (Dainippon Ink and Chemicals, Inc., priority 1988, dated 1992)",
  "key": {"mast cells": {"system": "mast cells", "assay": "Antiallergic activity: inhibition of histamine liberation from mast cells by Compound 48/80", "assay_type": "cell-based, rat", "settings": "for Liberation Ratio of Histamine / inhibition at 30 µM: 0.03 mM, Compound 48/80-induced; for Liberation Ratio of Histamine: control 82.4, blank 3.4; for inhibition at 30 µM: Rattus norvegicus, Mast cell, read-out: Inhibition Ratio (histamine liberation)", "method": "Locke's solution (10 ml) containing 0.1% by weight of bovine serum albumin was injected into the abdominal cavity of a rat which had been sacrificed by exsanguination. The rat was lightly massaged, then subjected to an abdominal section so that an abdominal solution was collected. The abdominal cavity was also washed with 5 ml of the same solution and the washing solution was collected and mixed with the above abdominal solution. The abdominal solution was centrifuged at 500 rpm for 5 minutes, then 5 ml of cool Locke's solution was added to the sediment. After the sediment had been washed, 3 ml of cool Locke's solution was again added thereto to form a solution of rat peritoneal exudation cells.\nLocke's solution (0.5 ml) and 1.0 ml of THC or isoliquiritigenin solution prepared in a concentration of 0.03 mM (THC or isoliquiritigenin was dissolved in a physiological saline solution containing 1% sodium bicarbonate, the resultant solution being diluted with Locke's solution) was added to 0.3 ml of the solution of rat peritoneal exudation cells obtained in (1) above and were incubated at 37° C. for 5 minutes. Then, 0.2 ml each of a Lock's solution of Compound 48/80 (1 mg/100 ml) was added to the solution and the mixture was incubated at 37° C. for 10 minutes. After the reaction was stopped by cooling, the obtained solution was centrifuged at 2,500 rpm for 10 minutes to separate into 1.7 ml of supernatant and 0.3 ml of sediment. Water (0.1 ml) and 0.2 ml of 100% trichloroacetic acid were added to the supernatant, and 1.5 ml of Locke's solution and the 100% trichloroacetic acid were added to the sediment which was then allowed to stand for 30 minutes at room temperature and was centrifuged at 3000 rpm for 15 minutes. A portion (0.35 ml) of each of the supernatant and the supernatant of the sediment was taken and 1.65 ml of water and 0.4 ml of 1N sodium hydroxide were added in turn to each of the supernatants. 0.5% OPT (orthophthalaldehyde) methanol solution (0.1 ml) was added to each of the resultant solutions which were then allowed to react at room temperature for 4 minutes. After the reaction was stopped by the addition of 0.2 ml of 2M citric acid, the fluorescence of each of the reaction solutions was measured by a fluorophotometer.\nAs a control, Locke's solution was added instead of the solution of THC and, as a blank, the Locke's solution was added instead of THC and Compound 48/80, the other operations being the same as those described above.\nThe inhibition ratio of THC or isoliquiritigenin for the liberation of histamine by Compound 48/80 is calculated from the following equations: [formula] Ps: Amount of free histamines (in the supernatant) Pr: Amount of remaining histamines (in the sediment) [formula] I: Value of A of THC or isoliquiritigenin C: Value of A of the control\nB: Value of A of the blank"}, "[1]": {"system": "kidney injury induced by cis-platinum", "assay": "Cis-platinum-induced kidney injury model test", "assay_type": "in vivo, ddy male mice", "settings": "for Blood Urea Nitrogen: 100 mg/kg/day oral, 5 days before and 5 days after 17 mg/kg s.c. cis-platinum, serum, mice, **: P < 0.01, *: P < 0.05 vs cis-platinum group (114.7 ± 18.4)", "method": "In this example, tests were conducted to examine the therapeutical activity of THC against kidney injury induced by cis-platinum (cis-DDP) which is an anti-cancer drug and is known to have a very strong effect of inducing functional disorders of the kidney.\nA group of ten ddy male mice each weighing from 20 to 25 g were orally administered with 100 mg/kg/day of THC or isoliquiritigenin (positive comparative compound) for 5 continuous days, subcutaneously injected with 17 mg/kg of cis-platinum once on the fifth day, and were treated moreover for 5 continuous days orally administered with THC or isoliquiritigenin in the same manner as above. Thereafter, blood samples were collected, and blood urea nitrogen (BUN) in the serum was measured.\nIn the test, a group of ten non-treated ddy male mice each weighing from 20 to 25 g were subcutaneously administered once with 17 mg/kg of cis-platinum only. This group was used as control.\nFor the measurement of blood urea nitrogen, there was used Urea NB-Test Wako (produced by Wako Pure Chemical Industry Co., Ltd.)."}, "[2]": {"system": "carragheenin-induced paw edema", "assay": "Antiinflammatory activity: carragheenin-induced paw edema", "assay_type": "in vivo, SD male rat", "settings": "300 mg/kg, oral, 60 minutes before carragheenin; rat", "method": "The antiinflammatory activity of THC was tested by using carragheenin-induced paw edema method widely used for the evaluation of the effectiveness of general antiinflammatory drugs (NSAID).\nA 1%-λ-carragheenin physiological saline solution (0.1 ml) was subcutaneously injected to the right paw of an SD male rat weighing from 200 to 250 g, and the volume of paw was measured after 30, 60, 90, 120, 180 and 300 minutes, respectively. The test drug (THC) had been administered orally in a dosage of 1.0 ml/200 g 60 minutes before the administration of carragheenin. The control group was administered orally with the solvent only in the same dosage. Edema ratio was calculated according to the following equation.\nEdema Ratio=[(Ps-P0)/P0 ]×100\nwhere Ps stands for value measured at a point in time after elapse of a predetermined time, and P0 value indicates a value measured at 0 minute after the administration."}, "[3]": {"system": "hydrochloric acid-ethanol-induced ulcer", "assay": "Antiulcer activity: HCl-ethanol ulcer model test", "assay_type": "in vivo, SD male rats", "settings": "for Inhibition Ratio (ulcer) / Ulcer Index: Dose 100 (unit not given), oral, n = 5 rats; for Ulcer Index: **: P < 0.01 vs control group (46.7 ± 34.6)", "method": "Antiulcer activity was tested using hydrochloric acid-ethanol-induced ulcer model test which is widely used for evaluating the effectiveness of antiulcer drugs.\nA group of five SD male rats each weighing from 200 to 250 g were starved for 24 hours, and then administered orally with 1.0 ml/200 g of 150 mM hydrochloric acid-60% ethanol. After 1 hour, the animals were sacrificed with ether, and the stomach was taken out from each animal. After pouring 10 ml of physiological saline in each of them the stomachs were dipped in 1% formalin solution for 10 minutes to fix them. Each of the stomachs was incised along the greater curvature (curvatura ventriculi major) and the lengths of mucosal ulcers which appeared in the gastric gland portion were measured under microscope (×10). The sum of the lengths per animal was calculated and defined as ulcer index. Test drugs were administered orally in a dose of 1,0 ml/200 g after 10 minutes from the induction of stress. Cetraxate hydrochloride known as antiulcer drug was used as positive comparative compound."}, "ddy mice": {"system": "ddy mice", "assay": "Toxicity test: minimum lethal dose", "assay_type": "in vivo", "settings": "5-week old male ddy mice", "method": "In this example, tests were conducted to confirm the safety of THC, which is the active ingredient of the drug of the present invention.\nTHC was administered by oral administration or intraperitoneal injection to five 5-week old male ddy mice."}, "[4]": {"settings": "compared with isoliquiritigenin"}},
  "note": "Structures can show the parent of a compound that is named as a salt.",
  "data": [
    {"smiles": "O=C(/C=C/c1ccc(O)cc1)c1ccc(O)cc1O", "note": "[isoliquiritigenin, reference compound]", "values": [
      {"measurement": "Liberation Ratio of Histamine", "setting": "mast cells", "value": 71.2, "unit": "%"},
      {"measurement": "inhibition at 30 µM", "setting": "mast cells", "value": 14.2, "unit": "%"},
      {"measurement": "Blood Urea Nitrogen", "setting": "[1]", "value": "70.6 ± 14.0"}
    ]},
    {"smiles": "O=C(/C=C/c1ccc(O)c(O)c1)c1ccc(O)cc1O", "note": "[THC, 2',3,4,4'-tetrahydroxychalcone]", "values": [
      {"measurement": "Liberation Ratio of Histamine", "setting": "mast cells", "value": 10.4, "unit": "%"},
      {"measurement": "inhibition at 30 µM", "setting": "mast cells", "value": 91.1, "unit": "%"},
      {"measurement": "inhibition effect on histamine liberation from rat mast cells caused by Compound 48/80 (in words)", "setting": "mast cells; [4]", "value": "more potent than isoliquiritigenin"},
      {"measurement": "inhibitory effect against carragheenin-induced edema", "setting": "[2]", "value": "marked inhibitory effect"},
      {"measurement": "Inhibition Ratio (ulcer)", "setting": "[3]", "value": 97.3},
      {"measurement": "Ulcer Index", "setting": "[3]", "value": "1.2 ± 2.5"},
      {"measurement": "inhibitory activity against hydrochloric acid-ethanol-induced ulcer (in words)", "setting": "[3]; rat", "value": "remarkable inhibitory activity"},
      {"measurement": "Blood Urea Nitrogen", "setting": "[1]", "value": "47.1 ± 12.6"},
      {"measurement": "suppression of the increase in blood urea nitrogen due to kidney injury induced by cis-platinum (in words)", "setting": "[1]; [4]", "value": "more potently than isoliquiritigenin"},
      {"measurement": "minimum lethal dose", "setting": "ddy mice; intraperitoneal injection", "value": "not less than 1,000 mg/kg"},
      {"measurement": "minimum lethal dose", "setting": "ddy mice; oral administration", "value": "not less than 3,000 mg/kg"}
    ]},
    {"smiles": "NC[C@H]1CC[C@H](C(=O)Oc2ccc(CCC(=O)O)cc2)CC1", "note": "[Cetraxate hydrochloride, reference compound]", "values": [
      {"measurement": "Inhibition Ratio (ulcer)", "setting": "[3]", "value": 75.7},
      {"measurement": "Ulcer Index", "setting": "[3]", "value": "11.2 ± 20.0"}
    ]}
  ]
}
